Laboratory results reported in patent US20230233569A1 (Revolution Medicines, Inc., priority 2020, published 2023).
Where “and” joins values, the source holds several entries; their conditions need not be identical. Equal values may be shown once.

Assays:
Experiment in all cases: Disruption of BRAF RBD interaction with Ras (FRET / MOA assay, with Cyclophilin A)
Assay type in all cases: biochemical
[1] = target: KRAS G12D (Homo sapiens, UniProt P01116+P62937, G12D); details: read-out: KRAS G12D FRET data, IC50
From the text: (§1) This protocol may also be executed substituting other Ras proteins or nucleotides.
(§2) The purpose of this biochemical assay was to measure the ability of test compounds to facilitate ternary complex formation between a nucleotide-loaded K-Ras isoform and Cyclophilin A; the resulting ternary complex disrupts binding to a BRAF^RBD construct, inhibiting K-Ras signaling through a RAF effector. Data is reported as IC50 values.
(§3) Compound was present in plate wells as a 10-point 3-fold dilution series starting at a final concentration of 30 μM. After incubation at 25° C. for 3 hours, a mixture of Anti-His Eu-W1024 and anti-GST allophycocyanin was then added to assay sample wells at final concentrations of 10 nM and 50 nM, respectively, and the reaction incubated for an additional 1.5 hours. […] Compounds that facilitate disruption of a K-Ras:RAF complex were identified as those eliciting a decrease in the TR-FRET ratio relative to DMSO control wells.
as §2, with “BRAF^RBDD” for “BRAF^RBD”

[2] = target: KRAS G13C (Homo sapiens, UniProt P01116+P62937, G13C); details: KRAS G13C; read-out: KRAS G13C FRET data IC50
From the text: as §1, §2, §3
as §2, with “BRAF^RBDD” for “BRAF^RBD”

[3] = target: KRAS G12V (Homo sapiens, UniProt P01116+P62937, G12V); details: KRAS G12V; read-out: KRAS G12V FRET data IC50
From the text: as §1, §2, §3
as §2, with “BRAF^RBDD” for “BRAF^RBD”

[4] = target: KRAS G12C (Homo sapiens, UniProt P01116+P62937, G12C); details: KRAS G12C; read-out: KRAS G12C FRET data IC50
From the text: as §1, §2, §3
as §2, with “BRAF^RBDD” for “BRAF^RBD”

[5] = target: KRAS G12S (Homo sapiens, UniProt P01116+P62937, G12S); details: read-out: KRAS G12S FRET data, IC50
From the text: as §1, §2, §3
as §2, with “BRAF^RBDD” for “BRAF^RBD”

[6] = target: KRAS WT (Homo sapiens, UniProt P01116+P62937); details: KRAS WT; read-out: KRAS WT FRET data IC50
From the text: as §1, §2, §3
as §2, with “BRAF^RBDD” for “BRAF^RBD”

KRAS G12S, sequence (P01116 1-169 isoform P01116-2 G12S limits assumed): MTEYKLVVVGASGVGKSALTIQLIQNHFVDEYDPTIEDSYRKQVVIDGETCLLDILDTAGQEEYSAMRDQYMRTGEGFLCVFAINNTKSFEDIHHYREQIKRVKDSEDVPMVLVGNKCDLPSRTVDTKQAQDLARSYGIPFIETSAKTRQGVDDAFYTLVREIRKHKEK
KRAS G12S, sequence (P62937 whole entry): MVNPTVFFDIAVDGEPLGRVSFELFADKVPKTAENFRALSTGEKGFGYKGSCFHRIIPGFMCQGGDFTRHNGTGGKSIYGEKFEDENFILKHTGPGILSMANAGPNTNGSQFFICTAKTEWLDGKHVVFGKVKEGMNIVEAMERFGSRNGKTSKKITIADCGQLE
KRAS G13C, sequence (P01116 1-169 isoform P01116-2 G13C): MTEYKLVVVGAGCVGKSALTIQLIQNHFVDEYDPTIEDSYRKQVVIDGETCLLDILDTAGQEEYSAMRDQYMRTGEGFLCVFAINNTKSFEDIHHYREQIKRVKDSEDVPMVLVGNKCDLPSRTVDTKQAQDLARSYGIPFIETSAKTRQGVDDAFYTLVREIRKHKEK
KRAS G13C, sequence (P62937 whole entry): as the sequence (P62937 whole entry) above
KRAS G12C, sequence (P01116 1-169 isoform P01116-2 G12C): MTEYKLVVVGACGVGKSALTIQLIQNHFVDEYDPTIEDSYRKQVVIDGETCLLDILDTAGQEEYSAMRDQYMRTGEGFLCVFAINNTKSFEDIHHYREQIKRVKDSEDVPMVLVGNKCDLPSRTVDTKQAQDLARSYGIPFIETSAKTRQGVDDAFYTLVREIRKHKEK
KRAS G12C, sequence (P62937 whole entry): as the sequence (P62937 whole entry) above
KRAS WT, sequence (P01116 1-169 isoform P01116-2 limits assumed): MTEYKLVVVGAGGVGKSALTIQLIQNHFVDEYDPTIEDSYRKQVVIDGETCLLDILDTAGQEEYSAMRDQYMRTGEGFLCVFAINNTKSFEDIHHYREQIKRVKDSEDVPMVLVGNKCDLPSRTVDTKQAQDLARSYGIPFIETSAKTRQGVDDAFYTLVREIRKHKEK
KRAS WT, sequence (P62937 whole entry): as the sequence (P62937 whole entry) above
KRAS G12D, sequence (P01116 1-169 isoform P01116-2 G12D limits assumed): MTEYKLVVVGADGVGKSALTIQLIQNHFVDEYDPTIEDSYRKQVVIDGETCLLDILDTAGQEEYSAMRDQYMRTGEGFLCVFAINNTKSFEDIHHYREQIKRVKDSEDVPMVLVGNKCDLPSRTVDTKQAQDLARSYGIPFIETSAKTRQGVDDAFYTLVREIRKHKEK
KRAS G12D, sequence (P62937 whole entry): as the sequence (P62937 whole entry) above
KRAS G12V, sequence (P01116 1-169 isoform P01116-2 G12V limits assumed): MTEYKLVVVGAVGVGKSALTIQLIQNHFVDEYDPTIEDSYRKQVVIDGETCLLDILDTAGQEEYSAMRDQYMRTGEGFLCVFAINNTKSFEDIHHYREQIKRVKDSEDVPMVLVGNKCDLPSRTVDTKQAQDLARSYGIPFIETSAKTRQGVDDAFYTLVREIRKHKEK
KRAS G12V, sequence (P62937 whole entry): as the sequence (P62937 whole entry) above

Row | Structure (SMILES) | IC50 [1] | IC50 [2] | IC50 [3] | IC50 [4] | IC50 [5] | IC50 [6]
1 | C=C(C)C(=O)N1CC(N(C)C(=O)N(C)[C@H](C(=O)N[C@H]2Cc3nc(cs3)-c3ccc4c(c3)c(c(-c3cccnc3[C@H](C)OC)n4CC)CC(C)(C)COC(=O)[C@@H]3CCCN(N3)C2=O)C(C)C)C1 (atropisomer, axis not shown) [Example A360] | 1 to 10 µM | – | – | – | – | –
2 | C=CC(=O)N1CC[C@H](C(=O)N(C)[C@H](C(=O)N[C@H]2Cc3cc(O)cc(c3)-c3ccc4c(c3)c(c(-c3ccncc3CCOC)n4CC)CC(C)(C)COC(=O)[C@@H]3CCCN(N3)C2=O)C(C)C)C1 (single isomer, unassigned) [Example A048] | 1 to 10 µM and > 10 µM | 0.1 to 1 µM and > 10 µM | 0.1 to 1 µM and > 10 µM | 0.01 to 0.1 µM and 1 to 10 µM | 0.1 to 1 µM and > 10 µM | 1 to 10 µM and > 10 µM
3 | C=CC(=O)N1CC[C@H](C(=O)N(C)[C@H](C(=O)N[C@H]2Cc3cc(O)cc(c3)-c3ccc4c(c3)c(c(-c3ccc(CN(C)C)cc3)n4CC)CC(C)(C)COC(=O)[C@@H]3CCCN(N3)C2=O)C(C)C)C1 [Example A003] | > 10 µM | 1 to 10 µM | 1 to 10 µM | 0.1 to 1 µM | 1 to 10 µM | > 10 µM
4 | C=CC(=O)N1CC[C@H](C(=O)N(C)[C@H](C(=O)N[C@H]2Cc3cc(O)cc(c3)-c3ccc4c(c3)c(c(-c3ccccc3CN(C)C)n4CC)CC(C)(C)COC(=O)[C@@H]3CCCN(N3)C2=O)C(C)C)C1 [Example A005] | 1 to 10 µM | 0.1 to 1 µM | 0.1 to 1 µM | 0.01 to 0.1 µM | 0.1 to 1 µM | 0.1 to 1 µM
5 | C=CC(=O)N1CC[C@H](C(=O)N(C)[C@H](C(=O)N[C@H]2Cc3cc(OC(=O)CN)cc(c3)-c3ccc4c(c3)c(c(-c3ccccc3CCOC)n4CC)CC(C)(C)COC(=O)[C@@H]3CCCN(N3)C2=O)C(C)C)C1 [Example A008] | > 10 µM | 1 to 10 µM | 1 to 10 µM | 0.1 to 1 µM | 1 to 10 µM | 1 to 10 µM
6 | C=CC(=O)N1CC[C@H](C(=O)N(C)[C@H](C(=O)N[C@H]2Cc3cc(cc(O)c3F)-c3ccc4c(c3)c(c(-c3ccccc3CCOC)n4CC)CC(C)(C)COC(=O)[C@@H]3CCCN(N3)C2=O)C(C)C)C1 [Example A009] | > 10 µM | > 10 µM | > 10 µM | 1 to 10 µM | > 10 µM | > 10 µM
7 | C=CC(=O)N1CC[C@H](C(=O)N(C)[C@H](C(=O)N[C@H]2Cc3cc(O)cc(c3)-c3ccc4c(c3)c(c(-c3ccc(CN5CCCC5)cc3)n4CC)CC(C)(C)COC(=O)[C@@H]3CCCN(N3)C2=O)C(C)C)C1 [Example A010] | > 10 µM | 1 to 10 µM | 1 to 10 µM | 0.1 to 1 µM | 1 to 10 µM | 1 to 10 µM
8 | C=CC(=O)N1CCCN(C(=O)N(C)[C@H](C(=O)N[C@H]2Cc3cc(O)cc(c3)-c3ccc4c(c3)c(c(-c3ccccc3CCOC)n4CC)CC(C)(C)COC(=O)[C@@H]3CCCN(N3)C2=O)C(C)C)CC1 [Example A013] | > 10 µM | 0.1 to 1 µM | 1 to 10 µM | 0.1 to 1 µM | 1 to 10 µM | 1 to 10 µM
9 | C=CC(=O)N1CCC(C(=O)N(C)[C@H](C(=O)N[C@H]2Cc3cc(O)cc(c3)-c3ccc4c(c3)c(c(-c3ccccc3CCOC)n4CC)CC(C)(C)COC(=O)[C@@H]3CCCN(N3)C2=O)C(C)C)CC1 [Example A014] | > 10 µM | 1 to 10 µM | > 10 µM | 0.1 to 1 µM | 1 to 10 µM | 1 to 10 µM
10 | C=CC(=O)N1CCN(C(=O)N(C)[C@H](C(=O)N[C@H]2Cc3cc(O)cc(c3)-c3ccc4c(c3)c(c(-c3ccccc3CCOC)n4CC)CC(C)(C)COC(=O)[C@@H]3CCCN(N3)C2=O)C(C)C)CC1 [Example A018] | > 10 µM | 0.1 to 1 µM | 1 to 10 µM | 0.1 to 1 µM | 1 to 10 µM | 1 to 10 µM
11 | CCn1c(-c2ccccc2CCOC)c2c3cc(ccc31)-c1cc(O)cc(c1)C[C@H](NC(=O)[C@H](C(C)C)N(C)C(=O)C1CCN(C(=O)/C=C/CN(C)C)CC1)C(=O)N1CCC[C@H](N1)C(=O)OCC(C)(C)C2 [Example A019] | > 10 µM | 1 to 10 µM | > 10 µM | 0.1 to 1 µM | 1 to 10 µM | 1 to 10 µM
